According to patent US10722491B2, “Phenol compound and combination of same with a benzodiazepine fused to 1,4-dihydropyridine for treating diseases of the central nervous and vascular systems” (UNIVERSIDAD DE LA HABANA, priority 2016, dated 2020):
pIC50: −log10 of the molar value.

How the values were obtained:
[1] = tested on: animals damaged with 6-OHDA; assay: 6-OHDA Parkinson's model, cylinder test; format: in vivo, rats; conditions: 7 days after 6-OHDA damage
[2] = tested on: occlusion of the middle cerebral artery in rats; assay: Transient middle cerebral artery occlusion, neurological deficit score; format: in vivo; conditions: 0.5 and 1 mg/kg oral, 1 hour after reperfusion
Protocol: FIG. 13. Acute treatment with KM-34 reduced the volume of infarction edema and deficit in rat behavior after 90 min of middle cerebral artery occlusion (MACA) and 23 hours of reperfusion. The different doses of the compound were administered orally 1 hour after reperfusion. (A) Representative brain coronal sections (2 mm thick) of the sham and ischemic groups treated with vehicle or KM-34 (0.1, 0.5 or 1 mg/kg) and stained with 2,3,5-triphenyltetrazolium (TTC) 2%. The red regions correspond to undamaged tissue and white to ischemic regions. (B) Quantitative analysis of cortical, subcortical and total lesion size. (C) Neurological deficit. The bars represent the mean ± SEM (n=8). Different letters in (A) and * in (B): p<0.05, by ANOVA and post hoc of Newman-Keuls. Scale=10 mm. […]
Transient cerebral ischemia was performed by the OACM, using the intraluminal filament method. […] After 23 hours of reperfusion, the neurological deficit was evaluated and the animals sacrificed to determine the infarct volume and perform the behavioral evaluations.
Neurological deficit was assessed according to a six-point scale: 0=no observable neurological deficit; 1=no extension of the left front leg; 2=shifts in circles to the left if the animal is suspended by the tail; 3=spontaneous displacements in circles to the left; 4=no spontaneous motor activity with decreased level of consciousness; 5=death.

PC12 cells [3] = assay: Cytoprotection against L-glutamate damage in PC12 cells (MTT); format: cell-based; conditions: 50 mM L-glutamate
Protocol: FIG. 6. Cytoprotective effect of KM-34 10001-10 HM) against damage induced by L-glutamate (50 mmol/L) in cultures of PC12 cells. Viability (% live cells) was determined by the MTT assay. Cells were seeded at a density of 5×10^5 cells/mL in a 96-well plate. KM-34 was added simultaneously to the addition of L-glutamate. The culture was then allowed to incubate at 37° C, […] and 5% CO 2 for 4 hours. After this time the supernatant was removed and the cells were incubated with 20 μg of MTT for an additional 2 hours and the absorbance at 450 nm was measured with reference to 630 nm. The results are expressed as percentage of live cells relative to the control (cells without damage, 100% of live cells. * Represents significant differences (p<0.05) with respect to the L-glutamate control.
FIG. 14. The survival rate for […] administered 50 mM Glutamate is shown. The control group was not administered 50 mM Glutamate. The remaining four groups were administered 50 mM Glutamate. The “Glu 50 mM” group was not administered any compounds of the invention. The “JM 0.01 μM” group was administered 0.01 μM JM-20. The “KM 0.01 μM” group was administered 0.01 μM KM-34. The “JM 0.01 μM+KM 0.01 μM” group was administered 0.01 μM JM-20 and 0.01 μM KM-34.
At values above 1 μM KM-34, the cytoprotection response is greater than 80%.

[4] = O2.- radical scavenging in the pyrogallol autoxidation test; format: biochemical
Protocol: FIG. 2. Activity of KM-34 (5-100 μM) as radical scavenger O2.− expressed as the percentage inhibition of autoxidation of pyrogallol. The same was obtained by varying the absorbance at 420 nm for 1 minute with respect to a blank uninhibited reaction: without KM-34; the slope was calculated for each concentration of the sample and for the target with a R2>0.98. The reaction takes place in […] Tris-HCl pH 8.2 buffer and was initiated by the addition of 0.134 mM Pirogalol*P<0.05 to the carrier (uninhibited reaction).
A non-enzymatic system generating these radicals was used to evaluate the O2.^− sequestration activity of KM-34, which catalyzes the autoxidation of pyrogallol, forming a colored compound that absorbs at 420 nm (Marklund, 1985).

PC12 cells [5] = assay: Cytoprotection against FeSO4/AA damage in PC12 cells (MTT); format: cell-based
Protocol: FIG. 8. Cytoprotective effect of KM-34 (0.001-10 μM) against damage induced by FeSO4 (5 mmol/L) and ascorbic acid (AA, 2 mmol/L) in cultures of PC12 cells. Viability 1% live cells) was determined by the MTT assay. Cells were seeded at a density of 5×10^5 cells/mL in a 96-well plate. The KM-34 was added simultaneously to the addition of the mixture of FeSO 4 and AA. The culture was then allowed to incubate at 37° C, […] and 5% CO 2 for 4 hours. After this time the supernatant was removed and the cells were incubated with 20 μg of MTT for a further 2 hours and the absorbance at 450 nm was measured with reference to 630 nm. The results are expressed as percentage of live cells relative to the control (undamaged cells, 100% live cells. *Represents significant differences (p<0.05) with respect to FeSO4/AA control.
The FeSO4/AA system is a strong catalyst for oxidative reactions in cells such as PC12 leading to their death (Hiroi et al., 2005; Núñez et al., 2011). […] At concentrations greater than 1 μM the % cell survival was greater than 90% (FIG. 8).

CC1(C)OC(=O)C(=Cc2ccc(O)c(O)c2)C(=O)O1 [KM-34, 5-[(3,4-dihydroxyphenyl)methylidene]-2,2-dimethyl-1,3-dioxane-4,6-dione]
% asymmetry, cylinder test ([1]; 0.5 mg/kg): no statistically significant difference with respect to the damaged group without treatment
% asymmetry, cylinder test ([1]; 2 mg/kg and 1 mg/kg): equal to the animals (healthy) animals
Neurological deficit (neurological score) [2]: significantly improved (p<0.05) the neurological deficit
Concentration significantly (P<0.01) inhibiting cell damage by L-glutamate (PC12 cells [3]; 4 hours): greater than 0.01 μM
Cytoprotection response (PC12 cells [3]; above 1 μM KM-34): greater than 80%
Concentration significantly (p<0.05) inhibiting formation of oxidized pyrogallol vs vehicle [4]: greater than 5 μM
pIC50 ([4]; Tris-HCl pH 8.2, read-out: IC50, inhibition of autoxidation of pyrogallol (O2.- scavenging)): 4.96
Inhibition of oxidation of pyrogallol ([4]; from 50 μM): totally inhibited
Concentration showing cytoprotective effects against FeSO4/AA (PC12 cells [5]; FeSO4 5 mmol/L and AA 2 mmol/L, 4 hours): higher than 0.001 μM
Cells surviving oxidizing conditions (PC12 cells [5]; FeSO4/AA, concentrations between 0.01-10 μM): 90 out of 100 cells
% cell survival (PC12 cells [5]; FeSO4/AA, concentrations greater than 1 μM): greater than 90%
